In patent US9199970B2, “4-[5-(pyridin-4-yl)-1H-1,2,4-triazol-3-yl]pyridine-2-carbonitrile crystalline polymorph and production method therefor” (FUJIYAKUHIN CO., LTD., priority 2012, dated 2015) one finds water solubility data, which are given here for three compounds.

Converted amounts (≈) assume the structure as drawn.

The data set is described as follows: Solubility test of various crystal forms (water solubility). The class given is physicochemical. The following applies: concentration of saturated solution determined through measuring absorbance (FIG. 8). The protocol:
Solubility Test of Various Crystal Forms
The water solubilities of type I crystals, type II crystals, and the hydrate of compound (1) were determined by calculating each sample concentration of its saturated solution determined through measuring absorbance.

The compound `N#Cc1cc(-c2n[nH]c(-c3ccncc3)n2)ccn1` [hydrate, 4-[5-(pyridin-4-yl)-1H-1,2,4-triazol-3-yl]pyridine-2-carbonitrile] yielded a water solubility of 1.9 µg/mL.

Consider `N#Cc1cc(-c2n[nH]c(-c3ccncc3)n2)ccn1` [type I crystals, 4-[5-(pyridin-4-yl)-1H-1,2,4-triazol-3-yl]pyridine-2-carbonitrile], for which the water solubility was 6.2 µg/mL (≈ 25 µM).

Compound `N#Cc1cc(-c2n[nH]c(-c3ccncc3)n2)ccn1` [type II crystals, 4-[5-(pyridin-4-yl)-1H-1,2,4-triazol-3-yl]pyridine-2-carbonitrile] gave a water solubility of 4.2 µg/mL (≈ 16.9 µM).
